Key:
Experiment in all cases: relative viability (nuclei count vs DMSO), 5 days (fraction); higher = more cells survive
Doramapimod + Linsitinib = compound: Cc1ccc(-n2nc(C(C)(C)C)cc2NC(=O)Nc2ccc(OCCN3CCOCC3)c3ccccc23)cc1 [Doramapimod] + C[C@]1(O)C[C@@H](c2nc(-c3ccc4ccc(-c5ccccc5)nc4c3)c3c(N)nccn32)C1 [Linsitinib] (partner 1 µM)
Summary of the method: (§1)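 Nuclei were stained with Hoechst during a one-step fixation (final 0.05% Triton X-100, 1% formaldehyde, 1 ug/ml Hoechst) carried out 5 days after dosing, then counted on 4× images. The cells, lung cancer lines in 1536-well plates, had been dosed by pin tool the day after seeding with one drug alone or a fixed anchor-drug dose plus five library-drug doses (not always all listed) in √10 steps. Relative viability is the nuclei count in treated wells divided by that in vehicle wells, and each value is the median of duplicate plates.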

RAF265 + OSI-027 = compound: Cn1c(Nc2ccc(C(F)(F)F)cc2)nc2cc(Oc3ccnc(-c4ncc(C(F)(F)F)[nH]4)c3)ccc21 [RAF265] + COc1cccc2cc(-c3nc([C@H]4CC[C@H](C(=O)O)CC4)n4ncnc(N)c34)[nH]c12 [OSI-027] (partner 0.5 µM)
Summary of the method: as §1

RAF265 + AZD7762 = compound: Cn1c(Nc2ccc(C(F)(F)F)cc2)nc2cc(Oc3ccnc(-c4ncc(C(F)(F)F)[nH]4)c3)ccc21 [RAF265] + NC(=O)Nc1cc(-c2cccc(F)c2)sc1C(=O)N[C@H]1CCCNC1 [AZD7762] (partner 0.2 µM)
Summary of the method: as §1

RAF265 + Pemetrexed = compound: Cn1c(Nc2ccc(C(F)(F)F)cc2)nc2cc(Oc3ccnc(-c4ncc(C(F)(F)F)[nH]4)c3)ccc21 [RAF265] + Nc1nc2[nH]cc(CCc3ccc(C(=O)N[C@@H](CCC(=O)O)C(=O)O)cc3)c2c(=O)[nH]1 [Pemetrexed] (partner 0.2 µM)
Summary of the method: as §1

| Cell Line | relative viability (Doramapimod + Linsitinib; first compound 0.02 µM) | relative viability (Doramapimod + Linsitinib; first compound 0.06325 µM) | relative viability (Doramapimod + Linsitinib; first compound 0.2 µM) | relative viability (Doramapimod + Linsitinib; first compound 0.6325 µM) | relative viability (Doramapimod + Linsitinib; first compound 2 µM) | relative viability (RAF265 + OSI-027; first compound 0.01 µM) | relative viability (RAF265 + OSI-027; first compound 0.03162 µM) | relative viability (RAF265 + OSI-027; first compound 0.1 µM) | relative viability (RAF265 + OSI-027; first compound 1 µM) | relative viability (RAF265 + AZD7762; first compound 0.01 µM) | relative viability (RAF265 + AZD7762; first compound 0.03162 µM) | relative viability (RAF265 + AZD7762; first compound 0.1 µM) | relative viability (RAF265 + AZD7762; first compound 0.3162 µM) | relative viability (RAF265 + AZD7762; first compound 1 µM) | relative viability (RAF265 + Pemetrexed; first compound 0.01 µM) | relative viability (RAF265 + Pemetrexed; first compound 0.03162 µM) | relative viability (RAF265 + Pemetrexed; first compound 0.1 µM) | relative viability (RAF265 + Pemetrexed; first compound 0.3162 µM) | relative viability (RAF265 + Pemetrexed; first compound 1 µM) | relative viability (RAF265 + OSI-027; first compound 0.3162 µM) |
| --- | --- | --- | --- | --- | --- | --- | --- | --- | --- | --- | --- | --- | --- | --- | --- | --- | --- | --- | --- | --- |
| PC-3 [JPC-3] | 1.07 | 0.987 | 0.987 | 1.06 | 0.998 | 0.84 | 0.655 | 0.746 | 0.567 | 0.879 | 0.771 | 0.742 | 0.445 | 0.479 | 1.17 | 1.11 | 1.24 | 0.42 | 0.621 | – |
| CAL-12T | 0.806 | 0.804 | 0.745 | 0.851 | 0.627 | 0.633 | 0.45 | 0.313 | 0.327 | 0.56 | 0.631 | 0.678 | 0.598 | 0.504 | 1.21 | 0.925 | 1.13 | 0.978 | 0.661 | 0.281 |
| COR-L 105 | 0.968 | 0.94 | 0.853 | 1.01 | 0.735 | 0.798 | 0.676 | 0.608 | 0.43 | – | – | – | – | – | 1.27 | 0.941 | 1.31 | 0.714 | 0.685 | 0.315 |
| NCI-H2347 | 1.04 | 0.974 | 0.96 | 1.01 | 0.846 | 0.418 | 0.341 | 0.44 | 0.278 | 0.74 | 0.7 | 0.832 | 0.46 | 0.22 | 0.392 | 0.371 | 0.406 | 0.446 | 0.351 | 0.35 |
| NCI-H2126 | 0.668 | 0.678 | 0.642 | 0.693 | 0.625 | 0.77 | 0.724 | 0.718 | 0.437 | 1.04 | 0.962 | 0.968 | 0.935 | 0.848 | 0.703 | 0.669 | 0.65 | 0.605 | 0.554 | 0.582 |
| NCI-H838 | 0.9 | 1.04 | 1.02 | 1.1 | 0.994 | 0.403 | 0.491 | 0.455 | 0.304 | 0.865 | 0.953 | 0.964 | 1.03 | 0.841 | 0.269 | 0.269 | 0.265 | 0.299 | 0.237 | 0.341 |
| A549 | 0.551 | 0.532 | 0.567 | 0.794 | 0.523 | – | – | – | – | – | – | – | – | – | – | – | – | – | – | – |
| NCI-H1648 | – | – | – | – | – | 0.266 | 0.298 | 0.277 | 0.246 | 0.698 | 0.514 | 0.804 | 0.758 | 0.567 | 0.758 | 0.66 | 0.771 | 1.02 | 0.65 | 0.3 |
| NCI-H1623 | – | – | – | – | – | 0.462 | 0.43 | 0.467 | 0.364 | – | – | – | – | – | – | – | – | – | – | 0.291 |
| SK-LU-1 | 1.07 | 1.02 | 1.2 | 1.16 | 0.941 | 0.349 | 0.254 | 0.224 | 0.193 | – | – | – | – | – | 0.893 | 0.838 | 0.711 | 0.544 | 0.435 | 0.232 |
